Data published in US20080102497A1, “ENZYMATIC HYDROLYSIS OF STARCH” (priority 2006, published 2008).
“And” between values parts separate entries of the source, which are not always exact repeats. Equal entries are not always repeated. Where two headings read alike, the source gives them in different places.

How the values were obtained:
[1] = tested on: α-amylase from Bacillus subtilis; assay: hydrolysis of cooked dent corn starch; assay type: biochemical; conditions: 0.01 mM Mn^++; cooked dent corn starch 0.5%; pH 5.2; 37° C., 10 min
Protocol: (§2) The separate reaction mixtures were incubated at 37° C. for 10 minutes. The control reaction mixtures contained enzyme, buffer, and starch but no manganese ion. The starch hydrolysis reaction was stopped by combining the reaction mixture with a solution containing DNSA and heating for 30 min at 85° C. The absorbance of the control and test samples was measured at 562 nm to monitor the amount of reducing sugar in each sample.

β-amylase from barley [2] = biological target: T1, β-amylase from barley (Hordeum vulgare, UniProt P16098); assay: hydrolysis of cooked corn starch varieties; assay type: biochemical; conditions: pH 5.2, 37° C., 10 min
Protocol: (§1) The separate reaction mixtures were incubated at 37° C. for 10 minutes. The control reaction mixture contained enzyme, buffer, and starch but no manganese ion. The starch hydrolysis reaction was stopped by combining the reaction mixture with a solution containing DNSA and heating for 30 min at 85° C. The absorbance of the control and test samples was measured at 562 nm to monitor the amount of reducing sugar in each sample.

[3] = biological target: T2, α-amylase from Bacillus amyloliquefaciens (Bacillus amyloliquefaciens, UniProt P00692); assay: hydrolysis of cooked dent corn starch; assay type: biochemical; conditions: 0.1 mM Mn^++; cooked dent corn starch 0.5%; pH 5.2; 37° C., 10 min
Protocol: as §2

[4] = biological target: T2, α-amylase from Bacillus amyloliquefaciens; assay: hydrolysis of raw corn starch, reducing sugar by DNSA; assay type: biochemical; conditions: for Relative Activity: raw corn starch, pH 5.3, 37° C., 20 min
Protocol: (§3) Thereafter, 40 μl of each pre-incubation solution was added to 15 mg raw corn starch, and the reaction mixture incubated at 37° C. for 20 minutes. The control reaction mixture contained substrate, enzyme, and buffer but no manganese ion. The starch hydrolysis reaction was stopped by combining the reaction mixture with a solution containing DNSA and heating for 30 min at 85° C. The absorbance of the control and test samples was measured at 562 nm to monitor the amount of reducing sugar in each sample.

β-amylase from barley [5] = biological target: T1, β-amylase from barley; assay: hydrolysis of cooked starches from different botanical sources; assay type: biochemical; conditions: pH 5.2, 37° C., 10 min
Protocol: as §1, with “The” for “The separate reaction mixtures were incubated at 37° C. for 10 minutes. The”, “3,5 dinitrosalicylic acid (DNSA)” for “a solution containing DNSA”

[6] = biological target: T3, β-amylase Type II-B from barley (Hordeum vulgare, UniProt P16098); assay: hydrolysis of raw corn starch or soluble starch; assay type: biochemical; conditions: for % Relative Activity: pH 5.3, 37° C., 20 min
T3 construct: purchased Sigma Sigma-7130
Protocol: Each of the buffered enzyme solutions was separately added to 15 mg raw corn starch or 0.6 mg soluble starch, and the reaction mixtures incubated at 37° C. for 20 minutes. The control reaction mixture contained substrate, enzyme, and buffer but no manganese ion. The starch hydrolysis reaction was stopped by combining the reaction mixture with a solution containing DNSA and heating for 30 min at 85° C. The absorbance of the control and test samples was measured at 562 nm to monitor the amount of reducing sugar in each sample.

[7] = biological target: α-amylase from Bacillus licheniformis (Bacillus licheniformis, UniProt P06278); assay: hydrolysis of raw corn starch, reducing sugar by DNSA; assay type: biochemical; conditions: for Relative Activity: raw corn starch, pH 5.3, 37° C., 20 min
Protocol: as §3

[8] = biological target: glucoamylase from Aspergillus Niger (Aspergillus niger, UniProt P69328); conditions: pH 5.2, 37° C., 10 min
Protocol: as §1, with “The” for “The separate reaction mixtures were incubated at 37° C. for 10 minutes. The”

[9] = 0.01 mM Mn^++, cooked barley starch 0.5%
[10] = 0.01 mM Mn^++, cooked pea starch 0.5%
[11] = 0.01 mM Mn^++, cooked potato starch 0.5%
[12] = 0.01 mM Mn^++, cooked rice starch 0.5%
[13] = 0.01 mM Mn^++, cooked soluble potato starch 0.5%
[14] = 0.01 mM Mn^++, cooked tapioca starch 0.5%
[15] = 0.01 mM Mn^++, cooked wheat starch 0.5%
[16] = 0.1 mM Mn^++, cooked barley starch 0.5%
[17] = 0.1 mM Mn^++, cooked pea starch 0.5%
[18] = 0.1 mM Mn^++, cooked potato starch 0.5%
[19] = 0.1 mM Mn^++, cooked rice starch 0.5%
[20] = 0.1 mM Mn^++, cooked soluble potato starch 0.5%
[21] = 0.1 mM Mn^++, cooked tapioca starch 0.5%
[22] = 0.1 mM Mn^++, cooked wheat starch 0.5%
[23] = 1 mM Mn^++, cooked barley starch 0.5%
[24] = 1 mM Mn^++, cooked pea starch 0.5%
[25] = 1 mM Mn^++, cooked potato starch 0.5%
[26] = 1 mM Mn^++, cooked rice starch 0.5%
[27] = 1 mM Mn^++, cooked soluble potato starch 0.5%
[28] = 1 mM Mn^++, cooked tapioca starch 0.5%
[29] = 1 mM Mn^++, cooked wheat starch 0.5%
[30] = 10 mM Mn^++, cooked barley starch 0.5%
[31] = 10 mM Mn^++, cooked pea starch 0.5%
[32] = 10 mM Mn^++, cooked potato starch 0.5%
[33] = 10 mM Mn^++, cooked rice starch 0.5%
[34] = 10 mM Mn^++, cooked tapioca starch 0.5%
[35] = 10 mM Mn^++, cooked wheat starch 0.5%

Sequence of α-amylase from Bacillus licheniformis (P06278 30-512): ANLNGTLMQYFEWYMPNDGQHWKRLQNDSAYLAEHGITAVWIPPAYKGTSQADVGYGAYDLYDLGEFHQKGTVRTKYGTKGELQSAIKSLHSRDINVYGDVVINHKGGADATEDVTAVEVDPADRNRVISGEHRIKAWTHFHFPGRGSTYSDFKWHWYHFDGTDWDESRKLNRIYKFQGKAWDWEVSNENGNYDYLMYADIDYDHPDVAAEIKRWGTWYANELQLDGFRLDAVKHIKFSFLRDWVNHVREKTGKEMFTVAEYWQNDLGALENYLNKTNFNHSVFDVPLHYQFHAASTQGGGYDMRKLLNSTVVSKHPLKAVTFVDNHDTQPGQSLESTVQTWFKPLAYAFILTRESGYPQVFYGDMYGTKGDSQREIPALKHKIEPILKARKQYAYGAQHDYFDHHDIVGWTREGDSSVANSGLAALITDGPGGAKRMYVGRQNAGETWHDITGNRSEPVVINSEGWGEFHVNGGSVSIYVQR
T1 sequence (P16098 whole entry): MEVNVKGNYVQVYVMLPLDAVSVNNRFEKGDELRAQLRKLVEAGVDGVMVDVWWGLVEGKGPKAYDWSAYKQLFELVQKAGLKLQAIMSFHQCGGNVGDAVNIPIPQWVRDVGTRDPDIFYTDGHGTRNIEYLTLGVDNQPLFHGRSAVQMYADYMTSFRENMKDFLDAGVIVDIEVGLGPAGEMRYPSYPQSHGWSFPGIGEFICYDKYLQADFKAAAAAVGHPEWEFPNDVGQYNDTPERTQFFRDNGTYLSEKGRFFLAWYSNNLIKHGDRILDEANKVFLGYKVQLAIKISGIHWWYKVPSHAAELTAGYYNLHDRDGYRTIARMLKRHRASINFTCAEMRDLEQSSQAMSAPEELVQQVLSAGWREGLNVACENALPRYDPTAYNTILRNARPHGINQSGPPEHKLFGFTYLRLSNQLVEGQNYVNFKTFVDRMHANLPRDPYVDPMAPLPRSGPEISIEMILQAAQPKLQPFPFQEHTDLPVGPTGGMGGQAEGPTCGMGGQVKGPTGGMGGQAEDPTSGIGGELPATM
T3 sequence (P16098 whole entry): as above
T2 sequence (P00692 32-514): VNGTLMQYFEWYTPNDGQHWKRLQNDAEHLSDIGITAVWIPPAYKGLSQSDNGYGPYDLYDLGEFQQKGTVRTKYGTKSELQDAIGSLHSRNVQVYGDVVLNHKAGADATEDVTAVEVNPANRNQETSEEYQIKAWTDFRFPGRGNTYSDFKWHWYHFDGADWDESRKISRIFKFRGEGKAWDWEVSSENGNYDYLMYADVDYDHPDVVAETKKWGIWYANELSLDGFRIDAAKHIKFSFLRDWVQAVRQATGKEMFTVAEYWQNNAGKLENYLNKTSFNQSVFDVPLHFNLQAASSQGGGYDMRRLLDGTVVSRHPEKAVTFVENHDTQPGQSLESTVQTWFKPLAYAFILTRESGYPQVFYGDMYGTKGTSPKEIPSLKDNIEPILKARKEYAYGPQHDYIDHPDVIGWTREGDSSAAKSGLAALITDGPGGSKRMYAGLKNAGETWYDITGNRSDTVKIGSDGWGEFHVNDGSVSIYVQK
Sequence of glucoamylase from Aspergillus Niger (P69328 25-640): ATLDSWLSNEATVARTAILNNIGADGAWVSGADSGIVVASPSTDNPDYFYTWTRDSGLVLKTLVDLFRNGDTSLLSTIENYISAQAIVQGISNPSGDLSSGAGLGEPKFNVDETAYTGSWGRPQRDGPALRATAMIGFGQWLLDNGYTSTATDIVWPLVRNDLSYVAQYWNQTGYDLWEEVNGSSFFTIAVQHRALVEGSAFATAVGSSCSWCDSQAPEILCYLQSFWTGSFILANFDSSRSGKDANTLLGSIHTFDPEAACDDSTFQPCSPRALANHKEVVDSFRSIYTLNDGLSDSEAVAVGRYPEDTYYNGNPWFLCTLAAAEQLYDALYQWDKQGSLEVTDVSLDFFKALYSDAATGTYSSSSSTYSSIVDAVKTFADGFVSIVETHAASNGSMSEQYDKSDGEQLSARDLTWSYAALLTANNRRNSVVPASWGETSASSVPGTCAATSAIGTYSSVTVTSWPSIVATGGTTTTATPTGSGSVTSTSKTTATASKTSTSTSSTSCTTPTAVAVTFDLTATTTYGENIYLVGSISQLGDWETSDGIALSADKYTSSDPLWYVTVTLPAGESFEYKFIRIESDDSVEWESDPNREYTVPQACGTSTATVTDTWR

[Mn+2] [Mn^++, manganese ions]
Relative Activity [1]: 113.0% and 119.5% | Relative Activity (β-amylase from barley [2]; 0.01 mM Mn^++, cooked dent corn starch 0.5%): 123.5% | Relative Activity (β-amylase from barley [2]; 0.01 mM Mn^++, cooked high-amylose V corn starch 0.5%): 111.2% | Relative Activity (β-amylase from barley [2]; 0.01 mM Mn^++, cooked soluble corn starch 0.5%): 138.7% | Relative Activity (β-amylase from barley [2]; 0.01 mM Mn^++, cooked waxy corn starch 0.5%): 114.2% | Relative Activity (β-amylase from barley [2]; 0.1 mM Mn^++, cooked dent corn starch 0.5%): 135.3% | Relative Activity (β-amylase from barley [2]; 0.1 mM Mn^++, cooked high-amylose V corn starch 0.5%): 123.3% | Relative Activity (β-amylase from barley [2]; 0.1 mM Mn^++, cooked soluble corn starch 0.5%): 135.7% | Relative Activity (β-amylase from barley [2]; 0.1 mM Mn^++, cooked waxy corn starch 0.5%): 129.9% | Relative Activity (β-amylase from barley [2]; 1 mM Mn^++, cooked dent corn starch 0.5%): 149.8% | Relative Activity (β-amylase from barley [2]; 1 mM Mn^++, cooked high-amylose V corn starch 0.5%): 136.3% | Relative Activity (β-amylase from barley [2]; 1 mM Mn^++, cooked soluble corn starch 0.5%): 174.8% | Relative Activity (β-amylase from barley [2]; 1 mM Mn^++, cooked waxy corn starch 0.5%): 148.3% | Relative Activity (β-amylase from barley [2]; 10 mM Mn^++, cooked dent corn starch 0.5%): 210.1% | Relative Activity (β-amylase from barley [2]; 10 mM Mn^++, cooked high-amylose V corn starch 0.5%): 184.5% | Relative Activity (β-amylase from barley [2]; 10 mM Mn^++, cooked soluble corn starch 0.5%): 199.6% | Relative Activity (β-amylase from barley [2]; 10 mM Mn^++, cooked waxy corn starch 0.5%): 237.4% | Relative Activity [3]: 121.0% and 120.4% | Relative Activity ([4]; 0.01 mM Mn^++): 101.5% | Relative Activity ([4]; 0.1 mM Mn^++): 115.7% | Relative Activity ([4]; 1 mM Mn^++): 119.1% | Relative Activity ([4]; 10 mM Mn^++): 111.7% | effect on hydrolysis of raw corn starch (in words) ([4]; summary of Table 4): enhances the hydrolysis of raw corn starch | Relative Activity (β-amylase from barley [5]; [9]): 115.2% | Relative Activity (β-amylase from barley [5]; [10]): 108.1% | Relative Activity (β-amylase from barley [5]; [11]): 109.5% | Relative Activity (β-amylase from barley [5]; [12]): 107.8% | Relative Activity (β-amylase from barley [5]; [13]): 117.4% | Relative Activity (β-amylase from barley [5]; [14]): 111.3% | Relative Activity (β-amylase from barley [5]; [15]): 120.2% | Relative Activity (β-amylase from barley [5]; [16]): 121.1% | Relative Activity (β-amylase from barley [5]; [17]): 122.3% | Relative Activity (β-amylase from barley [5]; [18]): 117.5% | Relative Activity (β-amylase from barley [5]; [19]): 123.9% | Relative Activity (β-amylase from barley [5]; [20]): 136.0% | Relative Activity (β-amylase from barley [5]; [21]): 122.1% | Relative Activity (β-amylase from barley [5]; [22]): 141.9% | Relative Activity (β-amylase from barley [5]; [23]): 154.0% | Relative Activity (β-amylase from barley [5]; [24]): 139.2% | Relative Activity (β-amylase from barley [5]; [25]): 135.4% | Relative Activity (β-amylase from barley [5]; [26]): 138.1% | Relative Activity (β-amylase from barley [5]; [27]): 154.1% | Relative Activity (β-amylase from barley [5]; [28]): 135.6% | Relative Activity (β-amylase from barley [5]; [29]): 151.9% | Relative Activity (β-amylase from barley [5]; [30]): 197.5% | Relative Activity (β-amylase from barley [5]; [31]): 253.4% | Relative Activity (β-amylase from barley [5]; [32]): 175.1% | Relative Activity (β-amylase from barley [5]; [33]): 173.4% | Relative Activity (β-amylase from barley [5]; 10 mM Mn^++, cooked soluble potato starch 0.5%): 165.6% | Relative Activity (β-amylase from barley [5]; [34]): 180.5% | Relative Activity (β-amylase from barley [5]; [35]): 221.1% | % Relative Activity ([6]; 0.01 mM Mn^++, raw corn starch): 99.5% | % Relative Activity ([6]; 0.01 mM Mn^++, soluble starch): 112.5% | % Relative Activity ([6]; 0.1 mM Mn^++, raw corn starch): 118.4% | % Relative Activity ([6]; 0.1 mM Mn^++, soluble starch): 119.2% | % Relative Activity ([6]; 1 mM Mn^++, raw corn starch): 133.3% | % Relative Activity ([6]; 1 mM Mn^++, soluble starch): 155.7% | % Relative Activity ([6]; 10 mM Mn^++, raw corn starch): 152.2% | % Relative Activity ([6]; 10 mM Mn^++, soluble starch): 157.3% | effect on hydrolysis of starch (in words) ([6]; raw corn starch and soluble starch): enhances the hydrolysis of both raw corn starch and soluble starch | Relative Activity ([7]; 0.01 mM Mn^++): 93.4% | Relative Activity ([7]; 0.1 mM Mn^++): 104.6% | Relative Activity ([7]; 1 mM Mn^++): 113.8% | effect on hydrolysis of raw corn starch (in words) ([7]; summary of Table 4): enhances the hydrolysis of raw corn starch | Relative Activity [8, 9]: 111.1% | Relative Activity [8, 10]: 121.1% | Relative Activity [8, 11]: 112.0% | Relative Activity [8, 12]: 109.3% | Relative Activity [8, 13]: 104.0% and 115.7% | Relative Activity [8, 14]: 109.5% | Relative Activity [8, 15]: 111.9% | Relative Activity [8, 16]: 117.5% | Relative Activity [8, 17]: 124.0% | Relative Activity [8, 18]: 118.8% | Relative Activity [8, 19]: 129.3% | Relative Activity [8, 20]: 121.0% and 130.1% | Relative Activity [8, 21]: 126.0% | Relative Activity [8, 22]: 122.2% | Relative Activity [8, 23]: 120.4% | Relative Activity [8, 24]: 138.0% | Relative Activity [8, 25]: 138.5% | Relative Activity [8, 26]: 144.0% | Relative Activity [8, 27]: 140.0% and 79.9% | Relative Activity [8, 28]: 135.7% | Relative Activity [8, 29]: 142.5% | Relative Activity [8, 30]: 172.6% | Relative Activity [8, 31]: 179.8% | Relative Activity [8, 32]: 200.0% | Relative Activity [8, 33]: 209.2% | Relative Activity [8, 34]: 183.8% | Relative Activity [8, 35]: 185.4%
